Laboratory results published in article PMC9528096, “A phase Ib study of camrelizumab in combination with apatinib and fuzuloparib in patients with recurrent or metastatic triple-negative breast cancer” (BMC Medicine, 2022).

Test: clinical
Design: species or system human
Conditions: in vivo; for Tmax: human
Experimental: Adverse events were monitored throughout the study treatment from informed consent until 90 days after the last camrelizumab dose or 30 days after the last apatinib or fuzuloparib dose, whichever occurred later, and were graded according to the National Cancer Institute Common Terminology Criteria for Adverse Events version 5.0. Radiographic assessment was performed by computed tomography (CT) or magnetic resonance imaging (MRI) according to RECIST version 1.1 at baseline and every two cycles. Complete or partial responses were confirmed 4 weeks later. Blood samples for pharmacokinetic analysis of apatinib and fuzuloparib were collected in all patients enrolled in the dose-finding part and in six to eight patients enrolled in the dose-expansion part. To evaluate the pharmacokinetic data of single-agent apatinib, patients intended for pharmacokinetic analysis were given apatinib alone 3 days before combination treatment initiation. Blood samples were collected 30 min pre-dose, 30 min, 1 h, 2 h, 3 h, 4 h, 8 h, 12 h, and 24 h post-dose on day − 3 of cycle 0 and day 1 of cycle 1.
The primary endpoint was DLT in cycle 1.
Safety and antitumor activity analyses were performed in all patients who received at least one dose of the study treatment. Continuously distributed data were summarized as mean (standard deviation) or median (range). Categorical data were summarized by the number and percentage of patients in each category. Adverse events were summarized descriptively. Two-sided 95% confidence intervals (CIs) for ORR and DCR were calculated using the Clopper-Pearson method. The PFS, DOR, and 12-month OS rate and their corresponding 95% CIs were estimated using the Kaplan–Meier method. Analyses of safety and antitumor activity were performed with SAS version 9.4. Pharmacokinetic parameters were descriptively summarized with non-compartmental analysis using WinNonlin (version 8.2).

| Structure (SMILES) | Tmax [h] | Apatinib exposure before and after co-administration with fuzuloparib |
| --- | --- | --- |
| N#CC1(c2ccc(NC(=O)c3cccnc3NCc3ccncc3)cc2)CCCC1 [Apatinib, apatinib] | 2 | comparable |
| O=C(c1cc(Cc2n[nH]c(=O)c3ccccc23)ccc1F)N1CCn2nc(C(F)(F)F)nc2C1 [Fuzuloparib, fuzuloparib] | 3 |  |
